Experimental data taken from publication PMC5902632 (2018).
Numbered stars: 1 amine (or outer) side, 2 acyl side, 3 side chain; on linkers, the order of the positions; unused ones are H or OH. Bridge positions count the residues as written; N and C are the ends. Square brackets hold non-standard residues; d marks the D form. Peptide text beside a SMILES is read from it. I, II: the chains in the order shown. Actinocin(9to1) = Cc1c2oc3c(C)ccc(C(=O)[*:1])c3nc-2c(C(=O)[*:2])c(N)c1=O; NMeV = CN[C@H](C(=O)O)C(C)C; Sar = CNCC(=O)O

How the values were obtained:
[1] = system: AcDNA (DNA, duplex) AGATATGCATATCT; assay: NMR (HSQC, NOESY, relaxation dispersion); details: 125 mM NaCl; 15 mM sodium phosphate, 0.1 mM EDTA, pH 5.3 or 6.8, 8% D2O; two orientations of the chromophore
[2] = system: E12DNA-WC (DNA, duplex) ACACGTAT/ATACGTGT; assay: NMR (2D HSQC chemical shift perturbation); details: 125 mM NaCl; 15 mM sodium phosphate, 0.1 mM EDTA, pH 5.3 or 6.8; room temperature
[3] = system: E12DNA (DNA, duplex) ACACGTACGTGT; assay: NMR (HSQC chemical shift perturbation, relaxation dispersion); details: 125 mM NaCl; 15 mM sodium phosphate, 0.1 mM EDTA, pH 5.3 or 6.8, 8% D2O; slow exchange
[4] = system: E12DNA-HG (DNA, duplex) ACGCACGT/ACGTGCGT; assay: NMR (2D NOESY and HSQC); details: 125 mM NaCl; 15 mM sodium phosphate, 0.1 mM EDTA, pH 5.3

Structure (SMILES)	binding [1]	binding [2]	binding [3]	binding [4]
Cc1c2oc3c(C)ccc(C(=O)N[C@@H]4C(=O)N[C@H](C(C)C)C(=O)N5CCC[C@H]5C(=O)N(C)CC(=O)N(C)[C@@H](C(C)C)C(=O)O[C@@H]4C)c3nc-2c(C(=O)N[C@@H]2C(=O)N[C@H](C(C)C)C(=O)N3CCC[C@H]3C(=O)N(C)CC(=O)N(C)[C@@H](C(C)C)C(=O)O[C@@H]2C)c(N)c1=O (I: T[dV]P[Sar][NMeV] / II: T[dV]P[Sar][NMeV]; ester I:1-I:C, II:1-II:C; linker I:N-II:N via Actinocin(9to1))	yes			
CSC1SC[C@H]2C(=O)N(C)[C@@H](C(C)C)C(=O)OC[C@@H](NC(=O)c3cnc4ccccc4n3)C(=O)N[C@@H](C)C(=O)N(C)[C@@H]1C(=O)N(C)[C@@H](C(C)C)C(=O)OC[C@@H](NC(=O)c1cnc3ccccc3n1)C(=O)N[C@@H](C)C(=O)N2C (stereo partly shown)		yes	yes	yes
